Reference: US11999806B2, “Broad-spectrum polypeptide against enterovirus and application thereof” (WUHAN INSTITUTE OF VIROLOGY, CHINESE ACADEMY OF SCIENCES, priority 2018, dated 2024)
Where “and” joins values, the source holds several entries; their conditions need not be identical. Equal entries are not always repeated. Where two headings read alike, the source gives them in different places. No end group written: not given here.

Tests used:
[1] = Cytotoxicity by CCK-8 in RD cells; type: cell-based; settings: human; for viability at 24 h, 0.01 µM: 0.01 μM polypeptide; for viability at 24 h, 0.1 µM: 0.1 μM polypeptide; for viability at 24 h, 1 µM: 1 μM polypeptide; for viability at 24 h, 10 µM: 10 μM polypeptide; for CC50 at 24 h: Table 1 summary, cell line not given, read-out: CC50; for viability at 24 h, 20 µM: 20 μM polypeptide; for viability at 24 h, 30 µM: 30 μM polypeptide; for viability at 24 h, 40 µM: 40 μM polypeptide
Experimental: (§1) The experiment was performed as follows. • (1) RD cells were plated in a 96-well plate at 100 μl per well. • (2) After the cells reached 70%-80% confluence, the MEM medium containing 10% serum was replaced with a MEM medium containing 2% serum. Then, polypeptide P2 was added to generate gradient concentrations of 0.01 μM, 0.1 μM, 1 μM, 10 μM, and 100 μM (final concentration), respectively. • (3) The test was performed 24 hours after the addition of the polypeptide, and 10 μl of viable cell detection reagent CCK-8 was added to each well and mixed well. • (4) The plate was incubated at 37° C. for 2 h. • (5) The absorbance value at OD450 was measured with a microplate reader.
as §1, with “P1” for “P2”, “concentrations),” for “concentration),”
(§2) RD cells were used to test the antiviral effect of polypeptide P1. When RD cells reached 80% confluence, polypeptide P1 was added at concentrations of 0 μM (control group), 0.01 μM, 0.1 μM, 1 μM, 10 μM, and 100 μM, respectively. Three parallel wells were used for each concentration. The test was carried out 24 hours later, and the cell viability was detected using the CCK-8 kit.
as §1, with “3A-TAT-EP” for “P2”, “concentrations),” for “concentration),”
as §2, with “3A-TAT-EP.” for “P1.”, “3A-TAT-EP” for “P1”
as §1, with “Then, 3A-EP-DRI or 3A-EP-PEG4-PA” for “Then, polypeptide P2”, “and 50” for “and 100”, “(final concentrations),” for “(final concentration),”
as §2, with “polypeptides 3A-EP-DRI and 3A-EP-PEG4-PA.” for “polypeptide P1.”, “3A-EP-DRI or 3A-EP-PEG4-PA” for “P1”, “50” for “100”, “kit. […]” for “kit.”

RD cells = test: Cytotoxicity by CCK-8 in RD cells; type: cell-based; settings: RD cells; for Cell viability (%): 24 h; for cytotoxicity, result in words: CCK-8, 24 h
Experimental: as §1
as §1, with “P1” for “P2”, “concentrations),” for “concentration),”
as §2
as §1, with “3A-TAT-EP” for “P2”, “concentrations),” for “concentration),”
as §2, with “3A-TAT-EP.” for “P1.”, “3A-TAT-EP” for “P1”
as §1, with “Then, 3A-EP-DRI or 3A-EP-PEG4-PA” for “Then, polypeptide P2”, “and 50” for “and 100”, “(final concentrations),” for “(final concentration),”
as §2, with “polypeptides 3A-EP-DRI and 3A-EP-PEG4-PA.” for “polypeptide P1.”, “3A-EP-DRI or 3A-EP-PEG4-PA” for “P1”, “50” for “100”, “kit. […]” for “kit.”

CVA16 = type: cell-based, Coxsackievirus A16; settings: RD cells, CCK-8; read-out: IC50 against CVA16
[2] = RD cells, 24 h, untreated = 100%, read-out: Cell viability (%)
[3] = RD cells, 24 h (Table 6), read-out: Cell viability (%)
[4] = RD cells, 50 μM polypeptide, 24 h (Table 6), read-out: Cell viability (%)

| Compound | viability at 24 h, 0.01 µM [1, 2] [%] | viability at 24 h, 0.1 µM [1, 2] [%] | viability at 24 h, 1 µM [1, 2] [%] | viability at 24 h, 10 µM [1, 2] [%] | CC50 at 24 h [1] [µM] | cytotoxicity, result in words (RD cells) | viability at 24 h, 20 µM [1, 3] [%] | viability at 24 h, 30 µM [1, 3] [%] | viability at 24 h, 40 µM [1, 3] [%] | viability at 24 h, 50 µM [1, 4] [%] | other results |
| --- | --- | --- | --- | --- | --- | --- | --- | --- | --- | --- | --- |
| RRRRRRRREEVRQYCRDQ [P2] | 98 | 94.4 | 105 | 96.6 | > 100 | not toxic to cells within 100 μM |  |  |  |  | viability at 24 h, 100 µM ([1]; RD cells, 100 μM polypeptide, 24 h, untreated = 100%, read-out: Cell viability (%)): 90.1%; Cell viability (%) (RD cells; 0.01 μM polypeptide, untreated = 100%): 104.6% and 102.7%; Cell viability (%) (RD cells; 0.1 μM polypeptide, untreated = 100%): 104% and 100.6%; Cell viability (%) (RD cells; 1 μM polypeptide, untreated = 100%): 105.4% and 98.81%; Cell viability (%) (RD cells; 10 μM polypeptide, untreated = 100%): 101.1% and 99.03%; Cell viability (%) (RD cells; 100 μM polypeptide, untreated = 100%): 106.8% and 94.07%; IC50 (CVA16): 1.53 µM |
| CC[C@@H](C)[C@@H](NC(=O)[C@H]1CCCN1C(C)=O)C(=O)N[C@@H](C(=O)N[C@H](Cc1c[nH]c2ccccc12)C(=O)NCC(=O)N[C@H](CCC(N)=O)C(=O)N[C@H](CCC(=O)O)C(=O)N[C@H](CCCNC(=N)N)C(=O)N[C@H](CS)C(=O)N[C@H](Cc1ccc(O)cc1)C(=O)N[C@H](CCC(N)=O)C(=O)N[C@H](CCCNC(=N)N)C(=O)N[C@@H](C(=O)N[C@H](CCC(=O)O)C(=O)N[C@H](CCC(=O)O)C(=O)N1CCC[C@@H]1C(=O)N1CCC[C@@H]1C(=O)N[C@H](CCCNC(=N)N)C(=O)N[C@H](CCCNC(=N)N)C(=O)N[C@H](CCCNC(=N)N)C(=O)N[C@H](CCC(N)=O)C(=O)N[C@H](CCCNC(=N)N)C(=O)N[C@H](CCCNC(=N)N)C(=O)N[C@H](CCCCN)C(=O)N[C@H](CCCCN)C(=O)N[C@H](CCCNC(=N)N)C(=O)NCC(=O)N[C@H](Cc1ccc(O)cc1)C(N)=O)C(C)C)[C@H](C)CC [3A-EP-DRI] | 106 | 95.9 | 91.3 | 95.7 | > 100 | not toxic to cells within 50 μM | 101 | 99 | 89 | 78.5 |  |
| YGRKKRRQRRRGSGEAVREYCK [BP8] |  |  |  |  | > 200 | not toxic to cells within 200 μM |  |  |  |  | viability at 24 h, 3.0625 µM ([1]; RD cells, 3.0625 μM, 24 h, CCK-8 4 h (Example 18), read-out: Cell viability (%)): 102%; viability at 24 h, 6.125 µM ([1]; RD cells, 6.125 μM, 24 h, CCK-8 4 h (Example 18), read-out: Cell viability (%)): 101%; viability at 24 h, 12.5 µM ([1]; RD cells, 12.5 μM, 24 h, CCK-8 4 h (Example 18), read-out: Cell viability (%)): 94.9%; viability at 24 h, 25 µM ([1]; RD cells, 25 μM, 24 h, CCK-8 4 h (Example 18), read-out: Cell viability (%)): 93.4%; viability at 24 h, 50 µM ([1]; RD cells, 50 μM, 24 h, CCK-8 4 h (Example 18), read-out: Cell viability (%)): 95.2%; viability at 24 h, 100 µM ([1]; RD cells, 100 μM, 24 h, CCK-8 4 h (Example 18), read-out: Cell viability (%)): 93.1%; viability at 24 h, 200 µM ([1]; RD cells, 200 μM, 24 h, CCK-8 4 h (Example 18), read-out: Cell viability (%)): 88.9%; Cell viability (%) (RD cells; 3.0625 μM, CCK-8 4 h (Example 18)): 103.1369% and 104.4%; Cell viability (%) (RD cells; 6.125 μM, CCK-8 4 h (Example 18)): 103.5158%; Cell viability (%) (RD cells; 12.5 μM, CCK-8 4 h (Example 18)): 99.35% and 104.8421%; Cell viability (%) (RD cells; 25 μM, CCK-8 4 h (Example 18)): 97.26% and 99.85%; Cell viability (%) (RD cells; 50 μM, CCK-8 4 h (Example 18)): 94.17% and 97.64%; Cell viability (%) (RD cells; 100 μM, CCK-8 4 h (Example 18)): 93.6% and 96.25%; Cell viability (%) (RD cells; 200 μM, CCK-8 4 h (Example 18)): 92.08% |
| CCCCCCCCCCCCCCCC(=O)NCCCC[C@H](NC(=O)CCOCCOCCOCCOCCNC(=O)[C@H](CCCCN)NC(=O)[C@H](C)NC(=O)[C@@H]1CCCN1C(=O)[C@@H](NC(=O)[C@@H](NC(=O)[C@H](Cc1c[nH]c2ccccc12)NC(=O)CNC(=O)[C@H](CCC(N)=O)NC(=O)[C@H](CCC(=O)O)NC(=O)[C@H](CCCNC(=N)N)NC(=O)[C@H](CS)NC(=O)[C@H](Cc1ccc(O)cc1)NC(=O)[C@H](CCC(N)=O)NC(=O)[C@H](CCCNC(=N)N)NC(=O)[C@@H](NC(=O)[C@H](CCC(=O)O)NC(=O)[C@@H](N)CCC(=O)O)C(C)C)[C@@H](C)CC)[C@@H](C)CC)C(=O)O [3A-EP-PEG4-PA] | 107 | 94.9 | 89.9 | 95.3 | > 100 | not toxic to cells within 50 μM | 98.4 | 99.5 | 99.3 | 94.8 |  |
